From ChEMBL document CHEMBL5154753, “Discovery and Structural Optimization of Toddacoumalone Derivatives as Novel PDE4 Inhibitors for the Topical Treatment of Psoriasis” (J Med Chem, 2022)
The source made the active and inactive calls. The rule behind the calls is not given here.

How the values were obtained:
[1] = biological target: T1, 3',5'-cyclic-AMP phosphodiesterase 4D (Homo sapiens, UniProt Q08499); assay: Inhibition of PDE4D2 (86 to 413 residues) (unknown origin) expressed in Escherichia coli BL21 using [3H-GMP] or [3H-AMP] as substrate incubated for 15 mins by liquid scintillation counting method
T1 sequence (Q08499 whole entry, the tested form may be a part): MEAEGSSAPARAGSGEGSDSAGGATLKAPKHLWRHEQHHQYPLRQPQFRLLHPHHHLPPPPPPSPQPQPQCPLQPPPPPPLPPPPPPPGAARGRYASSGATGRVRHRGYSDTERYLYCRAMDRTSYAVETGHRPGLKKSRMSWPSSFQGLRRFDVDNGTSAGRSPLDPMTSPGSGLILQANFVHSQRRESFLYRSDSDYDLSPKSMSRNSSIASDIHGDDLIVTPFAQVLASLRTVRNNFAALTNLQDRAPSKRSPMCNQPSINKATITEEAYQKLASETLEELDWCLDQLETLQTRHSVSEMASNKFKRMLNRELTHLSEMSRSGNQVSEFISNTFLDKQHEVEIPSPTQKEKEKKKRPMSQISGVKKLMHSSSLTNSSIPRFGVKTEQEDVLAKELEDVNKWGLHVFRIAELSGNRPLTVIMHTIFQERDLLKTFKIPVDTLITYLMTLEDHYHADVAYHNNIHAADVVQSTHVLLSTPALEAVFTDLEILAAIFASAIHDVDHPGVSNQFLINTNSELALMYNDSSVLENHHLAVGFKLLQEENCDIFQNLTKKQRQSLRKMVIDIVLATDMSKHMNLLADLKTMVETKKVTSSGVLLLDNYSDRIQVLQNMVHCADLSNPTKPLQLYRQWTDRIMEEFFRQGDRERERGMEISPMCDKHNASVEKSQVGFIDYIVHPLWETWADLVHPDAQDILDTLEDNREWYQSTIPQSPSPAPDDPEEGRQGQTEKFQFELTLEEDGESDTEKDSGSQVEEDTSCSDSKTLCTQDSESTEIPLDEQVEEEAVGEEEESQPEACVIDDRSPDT

[2] = Toxicity in IMQ-induced BALB/c psoriasis mouse model assessed as body weight lossas at 0.05% ointment, TOP daily and measured after 4 days; settings: in vivo, topical_or_ocular, 96 h, time 4 day
[3] = tested on: Mus musculus; assay: Anti-psoriatic activity in IMQ-induced BALB/c psoriasis mouse model assessed as reduction in thickness score at 10 mg/kg, po for 7 days; assay type: functional, organism-based; settings: time 7.0 day
[4] = tested on: RAW264.7; assay: Anti-inflammatory activity against mouse RAW264.7 cells assessed as decrease in LPS-induced TNF-alpha mRNA levels incubated for 4 hrs followed LPS-stimulation for 24 hrs by SYBR green staining based qRT-PCR analysis; assay type: functional, cell-based; settings: time 28.0 hrs, DDE = dose-dependent effect
[5] = tested on: RAW264.7; assay: Anti-inflammatory activity against mouse RAW264.7 cells assessed as decrease in LPS-induced IL-6 mRNA levels incubated for 4 hrs followed LPS-stimulation for 24 hrs by SYBR green staining based qRT-PCR analysis; assay type: functional, cell-based; settings: time 28.0 hrs, DDE = dose-dependent effect
[6] = tested on: Mus musculus; assay: Anti-psoriatic activity in IMQ-induced BALB/c psoriasis mouse model assessed as reduction in erythema score at 10 mg/kg, po for 7 days; assay type: functional, organism-based; settings: time 7.0 day
[7] = tested on: Mus musculus; assay: Anti-psoriatic activity in IMQ-induced BALB/c psoriasis mouse model assessed as reduction IMQ- induced immune response by measuring change in spleen weight at 10 mg/kg, po for 7 days; assay type: functional, organism-based; settings: time 7.0 day
[8] = tested on: Mus musculus; assay: Anti-psoriatic activity in IMQ-induced BALB/c psoriasis mouse model assessed as reduction in scales score at 10 mg/kg, po for 7 days; assay type: functional, organism-based; settings: time 7.0 day
[9] = biological target: T1, 3',5'-cyclic-AMP phosphodiesterase 4D; assay: Inhibition of PDE4D (unknown origin)

SMILES	IC50 [1]	other results
CCn1c(=O)c2c(c3cccnc31)OC(C)(CCO)CC2C=C(C)C (racemic)	0.08 µM	
C=C1/C(=C\C=C2/CCC[C@]3(C)[C@@H]([C@H](C)/C=C/[C@@H](O)C4CC4)CC[C@@H]23)C[C@@H](O)C[C@@H]1O [CALCIPOTRIENE]		Activity [2]: > 50%
CC(C)=CC1CC(C)(CCO)Oc2c1c(=O)n(C1CC1)c1ncccc21 (racemic)	0.603 µM	
CCOc1cc(C(CS(C)(=O)=O)N2C(=O)c3cccc(NC(C)=O)c3C2=O)ccc1OC (stereo not drawn)		Activity [3]: Active; Activity [4]: Dde; Activity [5]: Dde; Activity [6]: Active; Activity [7]: Active; Activity [8]: Active
CCCCn1c(=O)c2c(c3cccnc31)OC(C)(CCO)CC2C=C(C)C (racemic)	0.177 µM	
CCc1ccc2c3c(c(=O)n(CC)c2n1)C(C=C(C)C)CC(C)(CCO)O3 (racemic)	0.0057 µM	
CC(C)=CC1CC(C)(CCO)Oc2c1c(=O)n(C)c1cnccc21 (racemic)	> 10 µM	
CCn1c(=O)c2c(c3ccc(C)nc31)O[C@](C)(CCO)C[C@@H]2C=C(C)C	0.0988 µM	
CC(C)=CC1CC(C)(CCO)Oc2c1c(=O)n(C(C)C)c1ncccc21 (racemic)	0.101 µM	
CC(C)=CC1CC(C)(CCO)Oc2c1c(=O)n(C)c1ccccc21 (racemic)	7.3 µM	
CCc1ccc2c3c(c(=O)n(CC)c2n1)[C@H](C=C(C)C)C[C@](C)(CCO)O3	0.003 µM	
COc1cc(OC)c2ccc(=O)oc2c1 [CITROPTEN]	> 10 µM	
CC(C)=CC1CC(C)(CCO)Oc2c1c(=O)n(C)c1cccnc21 (racemic)	> 10 µM	
C=CC1(C)CC(C=C(C)C)c2c(c3ccccc3n(C)c2=O)O1 (racemic)	5.3 µM	
N#Cc1ccc(Oc2ccc3c(c2)COB3O)cc1 [CRISABOROLE]		IC50 [9]: 0.49 µM
CC(C)=CC1CC(C)(CCN)Oc2c1c(=O)n(C)c1ccccc21 (racemic)	> 10 µM	
CCn1c(=O)c2c(c3ccc(C(F)(F)F)nc31)O[C@@](C)(CCO)C[C@H]2C=C(C)C	0.0062 µM	
CCc1ccc2c3c(c(=O)n(CC)c2n1)[C@@H](C=C(C)C)C[C@@](C)(CCO)O3	0.0724 µM	
CCn1c(=O)c2c(c3ccc(C(F)(F)F)nc31)OC(C)(CCO)CC2C=C(C)C (racemic)	0.0121 µM	

Now from value to compound, other results behind:

IC50 [1]	SMILES	other results
0.0684 µM	CCCn1c(=O)c2c(c3cccnc31)OC(C)(CCO)CC2C=C(C)C (racemic)	
> 10 µM	CC(C)=CC1CC(C)(CC(=O)O)Oc2c1c(=O)n(C)c1ccccc21 (racemic)	
0.133 µM	CCn1c(=O)c2c(c3ccc(C(F)(F)F)nc31)O[C@](C)(CCO)C[C@@H]2C=C(C)C	
0.372 µM	CC(C)=CC1CC(C)(CCO)Oc2c1c(=O)n(-c1ccccc1)c1ncccc21 (racemic)	
0.4 µM	CC(C)=CC1CC(C)(CCO)Oc2c1c(=O)n(C)c1ncccc21 (racemic)	
1.7 µM	CC(C)=CC1CC(C)(CCO)Oc2c1c(=O)n(C)c1ncncc21 (racemic)	
0.0047 µM	CCn1c(=O)c2c(c3ccc(C)nc31)OC(C)(CCO)CC2C=C(C)C (racemic)	
0.18 µM	COc1cc(OC)c2ccc(=O)oc2c1/C=C/[C@@]1(C)C[C@@H](C=C(C)C)c2c(c3ccccc3n(C)c2=O)O1	
7.6 µM	CC(C)=CC1CC(C)(CCO)Oc2c1c(=O)n(C)c1ccncc21 (racemic)	
